The text below walks through data of ChEMBL document CHEMBL5154936, “Scaffold Hopping Strategy to Identify Prostanoid EP4 Receptor Antagonists for Cancer Immunotherapy” (J Med Chem, 2022).

For data set [1], the target named is T1, CYP1A2 (Homo sapiens, UniProt P05177).
T1 sequence (P05177 whole entry): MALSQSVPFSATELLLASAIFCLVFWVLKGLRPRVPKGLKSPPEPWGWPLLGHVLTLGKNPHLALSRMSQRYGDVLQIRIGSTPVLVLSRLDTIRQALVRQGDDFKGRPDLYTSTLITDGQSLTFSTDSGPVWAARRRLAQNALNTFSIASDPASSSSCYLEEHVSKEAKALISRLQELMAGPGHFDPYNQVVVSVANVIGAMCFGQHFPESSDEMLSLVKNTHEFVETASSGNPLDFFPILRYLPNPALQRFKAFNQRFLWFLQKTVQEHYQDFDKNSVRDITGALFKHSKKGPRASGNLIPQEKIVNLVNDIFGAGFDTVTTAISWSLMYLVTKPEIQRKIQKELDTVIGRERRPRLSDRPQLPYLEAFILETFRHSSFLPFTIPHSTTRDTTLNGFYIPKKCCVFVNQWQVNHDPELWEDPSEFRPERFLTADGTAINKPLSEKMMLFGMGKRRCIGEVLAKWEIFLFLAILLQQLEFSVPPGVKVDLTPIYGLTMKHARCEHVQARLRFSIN
The experiment in a line: Inhibition of CYP1A2 (unknown origin) at 20 uM. Format: ADME.

Data set [2] can be described thus: Metabolic stability in human liver microsomes assessed as parent compound remaining at 10 uM measured after 60 mins. Conditions: read-out: Stability. Format: ADME, Microsome. On the technique in general: Liver microsomes are vesicles of endoplasmic reticulum, rich in cytochrome P450 enzymes.
For data set [3], the target named is CYP2E1 (Homo sapiens, UniProt P05181). The experiment in a line: Inhibition of CYP2E1 (unknown origin) at 20 uM. It is filed as ADME.
A short description of data set [4]: Metabolic stability in mouse liver microsomes assessed as half life. Format: ADME, Microsome.
The nature of data set [5]: Volume of distribution at steady state in BALB/c mouse at 1 mg/kg, iv measured upto 24 hrs by LC-MS/MS analysis. It is filed as ADME, organism-based. Conditions: in vivo, read-out: Vdss.
The nature of data set [6]: AUC (0 to infinity) in BALB/c mouse at 1 mg/kg, iv measured upto 24 hrs by LC-MS/MS analysis. It is filed as ADME, organism-based. Set-up: time < 24 hrs, dose 1 mg/kg, route iv. Conditions: in vivo.
For data set [7], the target named is Voltage-gated inwardly rectifying potassium channel KCNH2 (Homo sapiens, UniProt Q12809). The experiment in a line: Inhibition of human ERG potassium channel transfected in HEK293 cells by whole-cell patch clamp assay. Format: toxicity, cell-based. For orientation: The patch-clamp technique gives a direct electrical read-out from membranes.
A short description of data set [8]: Kinetic solubility of compound in simulated intestinal fluid at pH 6.8 measured after 24 hrs by HPLC analysis. Format: physicochemical. Conditions: read-out: Kinetic_solubility.
Data set [9] is described as follows: AUC (0 to 24 hrs) in BALB/c mouse at 5 mg/kg, po measured upto 24 hrs by LC-MS/MS analysis. Conditions: in vivo. Format: ADME, organism-based. Also on record: dose 5 mg/kg, time < 24 hrs, route po.
Data set [10] can be described thus: Clearance in BALB/c mouse at 5 mg/kg, po measured upto 24 hrs by LC-MS/MS analysis. Format: ADME, organism-based. Conditions: in vivo.
The target of data set [11] is CYP2C9 (Homo sapiens, UniProt P11712). The experiment in a line: Inhibition of CYP2C9 (unknown origin) at 20 uM. Format: ADME.
For data set [12], the target named is CYP2D6 (Homo sapiens, UniProt P10635). The experiment in a line: Inhibition of CYP2D6 (unknown origin) at 20 uM. Format: ADME.
Data set [13] concerns the target T2, CYP2B6 (Homo sapiens, UniProt P20813).
T2 sequence (P20813 whole entry): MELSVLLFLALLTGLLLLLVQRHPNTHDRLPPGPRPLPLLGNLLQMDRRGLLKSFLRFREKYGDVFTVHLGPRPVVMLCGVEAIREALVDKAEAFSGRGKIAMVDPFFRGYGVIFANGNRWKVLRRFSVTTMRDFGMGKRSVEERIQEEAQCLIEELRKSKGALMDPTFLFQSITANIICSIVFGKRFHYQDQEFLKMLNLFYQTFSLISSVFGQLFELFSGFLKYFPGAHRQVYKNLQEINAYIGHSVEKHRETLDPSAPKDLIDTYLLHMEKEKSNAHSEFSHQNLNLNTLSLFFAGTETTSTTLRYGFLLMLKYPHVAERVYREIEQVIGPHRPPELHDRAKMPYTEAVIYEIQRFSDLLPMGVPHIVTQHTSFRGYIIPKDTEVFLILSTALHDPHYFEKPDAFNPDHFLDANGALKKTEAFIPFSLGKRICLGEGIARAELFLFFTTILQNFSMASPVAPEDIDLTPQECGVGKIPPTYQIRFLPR
The experiment in a line: Inhibition of CYP2B6 (unknown origin) at 20 uM. Format: ADME.

Data set [14] can be described thus: Cmax in BALB/c mouse at 1 mg/kg, iv measured upto 24 hrs by LC-MS/MS analysis. Format: ADME, organism-based. Also on record: time < 24 hrs, dose 1 mg/kg, route iv. Conditions: in vivo.
A short description of data set [15]: AUC (0 to infinity) in BALB/c mouse at 5 mg/kg, po measured upto 24 hrs by LC-MS/MS analysis. It is filed as ADME, organism-based. Set-up: dose 5 mg/kg, time < 24 hrs, route po. Conditions: in vivo.
The nature of data set [16]: Metabolic stability in human liver microsomes assessed as half life. Format: ADME, Microsome.
Data set [17] is described as follows: Volume of distribution at steady state in BALB/c mouse at 5 mg/kg, po measured upto 24 hrs by LC-MS/MS analysis. It is filed as ADME, organism-based. Conditions: in vivo.
Data set [18] in a line: Plasma protien binding of the compound incubated for 24 hrs by equilibrium dialysis method. Format: ADME, cell-free. Conditions: read-out: PPB (converted). In general terms: In equilibrium dialysis free small molecules cross a membrane that holds back macromolecules.
Data set [19] in a line: Cmax in BALB/c mouse at 5 mg/kg, po measured upto 24 hrs by LC-MS/MS analysis. It is filed as ADME, organism-based. Also on record: dose 5 mg/kg, time < 24 hrs, route po. Conditions: in vivo.
Data set [20] can be described thus: Metabolic stability in human liver microsomes assessed as intrinsic clearance. Format: ADME, Microsome. Conditions: read-out: CLH.
The target of data set [21] is T3, Prostaglandin E2 receptor EP1 subtype (Homo sapiens, UniProt P34995).
T3 sequence (P34995 whole entry): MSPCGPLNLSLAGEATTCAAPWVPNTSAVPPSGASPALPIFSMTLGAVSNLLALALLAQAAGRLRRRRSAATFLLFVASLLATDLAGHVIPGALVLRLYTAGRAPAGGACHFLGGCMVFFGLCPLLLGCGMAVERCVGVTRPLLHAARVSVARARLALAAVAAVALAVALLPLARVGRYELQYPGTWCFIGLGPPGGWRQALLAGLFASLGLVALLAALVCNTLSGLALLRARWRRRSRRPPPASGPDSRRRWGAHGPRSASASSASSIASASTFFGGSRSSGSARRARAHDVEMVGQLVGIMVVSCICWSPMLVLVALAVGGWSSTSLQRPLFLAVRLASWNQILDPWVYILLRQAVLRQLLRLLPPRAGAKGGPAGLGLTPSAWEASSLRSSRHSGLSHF
The experiment in a line: Antagonist activity at human EP1 receptor transfected in CHO/Galpha16 cells preincubated for 15 mins followed by PGE2 addition by calcium flux assay. It is filed as functional, cell-based.

SMILES strings stand for the structures. In brackets after ≈: the same amount, converted by molar mass.

Sequence of CYP2C9 (P11712 whole entry): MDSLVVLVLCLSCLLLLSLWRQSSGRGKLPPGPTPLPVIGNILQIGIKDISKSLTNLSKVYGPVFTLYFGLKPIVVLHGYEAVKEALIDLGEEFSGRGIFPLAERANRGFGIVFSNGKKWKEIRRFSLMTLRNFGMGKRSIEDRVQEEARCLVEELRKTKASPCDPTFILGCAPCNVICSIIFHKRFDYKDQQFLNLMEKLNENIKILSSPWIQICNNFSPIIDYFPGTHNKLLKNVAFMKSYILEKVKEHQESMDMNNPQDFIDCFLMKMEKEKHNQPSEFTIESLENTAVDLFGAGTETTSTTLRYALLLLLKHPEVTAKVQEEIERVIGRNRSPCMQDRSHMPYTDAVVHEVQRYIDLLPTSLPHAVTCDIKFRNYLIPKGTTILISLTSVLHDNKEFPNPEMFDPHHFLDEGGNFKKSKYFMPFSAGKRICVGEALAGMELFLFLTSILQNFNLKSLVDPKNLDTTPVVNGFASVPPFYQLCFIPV
Sequence of Voltage-gated inwardly rectifying potassium channel KCNH2 (Q12809 whole entry): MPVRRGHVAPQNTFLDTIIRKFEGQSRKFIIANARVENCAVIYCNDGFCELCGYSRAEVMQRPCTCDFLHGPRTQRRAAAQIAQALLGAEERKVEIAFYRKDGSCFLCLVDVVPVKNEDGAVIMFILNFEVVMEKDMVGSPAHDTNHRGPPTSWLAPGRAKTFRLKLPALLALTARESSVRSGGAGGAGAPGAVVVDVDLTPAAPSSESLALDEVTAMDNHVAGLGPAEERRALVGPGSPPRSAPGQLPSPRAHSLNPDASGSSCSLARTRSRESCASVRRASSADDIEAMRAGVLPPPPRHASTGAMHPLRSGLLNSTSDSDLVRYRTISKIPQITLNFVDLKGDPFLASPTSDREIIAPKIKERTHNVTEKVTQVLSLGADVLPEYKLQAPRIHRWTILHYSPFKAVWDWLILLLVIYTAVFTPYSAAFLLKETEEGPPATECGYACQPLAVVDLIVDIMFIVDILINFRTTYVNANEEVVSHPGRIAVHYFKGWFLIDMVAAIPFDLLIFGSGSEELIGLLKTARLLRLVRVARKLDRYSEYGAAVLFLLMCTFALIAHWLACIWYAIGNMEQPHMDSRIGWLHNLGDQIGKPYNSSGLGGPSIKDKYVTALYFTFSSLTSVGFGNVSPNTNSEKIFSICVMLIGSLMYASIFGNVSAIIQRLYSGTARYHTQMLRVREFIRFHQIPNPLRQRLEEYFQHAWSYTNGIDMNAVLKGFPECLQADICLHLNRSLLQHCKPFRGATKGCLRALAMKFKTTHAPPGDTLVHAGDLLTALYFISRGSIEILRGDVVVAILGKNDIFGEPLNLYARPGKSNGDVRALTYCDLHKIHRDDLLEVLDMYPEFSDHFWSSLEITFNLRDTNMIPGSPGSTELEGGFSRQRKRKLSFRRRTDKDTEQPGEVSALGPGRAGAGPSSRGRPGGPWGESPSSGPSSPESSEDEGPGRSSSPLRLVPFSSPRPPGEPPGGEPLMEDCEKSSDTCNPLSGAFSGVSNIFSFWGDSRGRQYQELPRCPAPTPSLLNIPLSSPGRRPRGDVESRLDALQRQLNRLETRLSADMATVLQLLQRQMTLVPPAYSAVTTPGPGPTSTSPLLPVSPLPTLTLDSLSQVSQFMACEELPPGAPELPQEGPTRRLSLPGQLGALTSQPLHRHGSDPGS
Sequence of CYP2D6 (P10635 whole entry): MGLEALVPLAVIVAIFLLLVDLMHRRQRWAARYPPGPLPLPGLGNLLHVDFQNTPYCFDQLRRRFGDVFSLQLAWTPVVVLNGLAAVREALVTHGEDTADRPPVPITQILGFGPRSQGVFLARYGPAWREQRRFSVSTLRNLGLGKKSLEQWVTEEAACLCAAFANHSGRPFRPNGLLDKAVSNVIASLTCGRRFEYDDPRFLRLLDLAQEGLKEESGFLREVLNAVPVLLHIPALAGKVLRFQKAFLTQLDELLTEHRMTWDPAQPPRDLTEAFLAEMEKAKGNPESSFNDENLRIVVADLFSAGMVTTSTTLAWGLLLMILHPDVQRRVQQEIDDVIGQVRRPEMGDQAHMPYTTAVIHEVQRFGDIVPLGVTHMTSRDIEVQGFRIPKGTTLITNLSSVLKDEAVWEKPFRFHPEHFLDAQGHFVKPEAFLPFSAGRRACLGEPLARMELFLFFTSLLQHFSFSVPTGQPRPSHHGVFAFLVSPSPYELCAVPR
Sequence of CYP2E1 (P05181 whole entry): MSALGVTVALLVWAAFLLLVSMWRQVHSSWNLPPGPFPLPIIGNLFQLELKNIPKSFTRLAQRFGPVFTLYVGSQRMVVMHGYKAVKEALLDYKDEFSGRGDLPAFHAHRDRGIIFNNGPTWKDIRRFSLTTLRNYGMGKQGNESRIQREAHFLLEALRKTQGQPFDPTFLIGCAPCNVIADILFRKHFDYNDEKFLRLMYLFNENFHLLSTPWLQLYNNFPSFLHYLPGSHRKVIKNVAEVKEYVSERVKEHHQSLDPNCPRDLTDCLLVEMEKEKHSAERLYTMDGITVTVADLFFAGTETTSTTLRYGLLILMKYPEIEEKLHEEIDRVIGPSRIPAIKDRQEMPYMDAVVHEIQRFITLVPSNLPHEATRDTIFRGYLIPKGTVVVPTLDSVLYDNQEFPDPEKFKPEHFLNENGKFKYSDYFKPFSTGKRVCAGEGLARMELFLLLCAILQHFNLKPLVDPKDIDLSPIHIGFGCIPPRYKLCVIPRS

On to `O=C(O)c1ccc(CNC(=O)c2c(Cc3ccc(F)cc3)sc3c2CCOC3)cc1`, for which the inhibition – broadly, the percentage by which the read-out fell short of the control – at 20 µM was 46% in data set [1]; 31% in [3]; 44% in data set [11]; 65% in data set [12]; 78% in data set [13]. In addition, the remaining at 1 h, 10 µM in data set [2] amounted to 89.8%. In addition, the half-life in [4] and in data set [16] was above 2.42 h each time. The Vd in data set [5] worked out at 6.14 L/kg. Besides, the AUC(0-inf) (commonly the area under the concentration-time curve extrapolated to infinity) in data set [6] amounted to 735 ng·h/mL; in [15], 2220 ng·h/mL. Also, the values for the IC50 in [7] and in data set [21] were above 30 µM and above 10 µM, respectively. In addition, the solubility kinetic at 24 h in data set [8] is above 200 µM. Further, in data set [9], the AUC(0-t) (in general, the area under the concentration-time curve up to a stated or last time point) at 24 h is 2100 ng·h/mL. For the same compound, in [10], the CL/F (as a rule, the apparent clearance, not corrected for the fraction that reaches the circulation) was 38.5 mL/min/kg. In addition, the Cmax (usually the maximum level reached in the sampled fluid or tissue) is 2840 ng/mL in [14] and 982 ng/mL in [19]. In data set [17], this compound gave a Vdss of 21.0327 L/kg. Also, the fraction unbound at 24 h in [18] is 0.062. Also, the microsomal CLint in data set [20] is below 9.6 µL/min/mg.
Regarding `C[C@H](NC(=O)c1c(Cc2cccc(C(F)(F)F)c2)sc2c1CCOC2)c1ccc(C(=O)O)cc1`, the inhibition at 20 µM in data set [1] is 60%; in data set [3], 23%; in data set [11], 27%; in data set [12] it was 72%; in data set [13], 75%. For the same compound, in data set [2], the remaining at 1 h, 10 µM was determined as 84.6%. Moreover, the half-life in [4] and in data set [16] was above 2.42 h throughout. For the same compound, in [5], the Vd was 7.39 L/kg. Besides, the values for the total exposure AUC(0-inf) in data set [6] and in [15] were 683 ng·h/mL and 1690 ng·h/mL, respectively. For the same compound, the IC50 (commonly the concentration needed to halve the response being measured) in data set [7] is above 30 µM; in [21], above 10 µM. In data set [8], the solubility kinetic at 24 h is 182 µM (≈ 89.1 µg/mL). The compound also showed an AUC(0-t) at 24 h in data set [9] of 1680 ng·h/mL. Further, in [10], the CL/F was 49.9 mL/min/kg. The results for the Cmax in data set [14] and in data set [19] were 2800 ng/mL and 664 ng/mL, respectively. This compound also had a Vdss in data set [17] of 14.5274 L/kg. In addition, the fraction unbound at 24 h in [18] was 0.034. For the same compound, the microsomal CLint in data set [20] is below 9.6 µL/min/mg.
